Test results published in a melting point compilation (Tetko et al.; mined from patent text by program, amines drawn as free bases though some values may be those of a salt).
Residues, ends and D or L forms follow the SMILES beside them. *: point of attachment. NHPhenethyl = c1ccc(CCN*)cc1

Row | Compound | melting point
1 | CCN(CC)CCNc1ccc(C)c2sc3ccc(O)cc3c(=O)c12 | 254 to 255 °C
2 | CC(C)(C)OC(=O)NC(Cc1ccccc1)C(=O)Nc1ccc2[nH]cc(CC#N)c2c1 (stereo not given) | 146 to 149 °C
3 | CC(C)n1c(C=O)c(-c2ccc(F)cc2)c(-c2ccccc2)c1C(=O)Nc1cccc(C(=O)N(C)C)c1 | 202 to 203 °C
4 | COc1ccc(O[C@@H]2COc3ccc(-c4ccc5cc(F)ccc5n4)cc3[C@@H]2O)cc1 (relative stereo) | 151 to 154 °C
5 | CC1Nc2ccc(NC(=O)c3ccc(C(=NN)C(=O)OCc4ccccc4)cc3)cc2CN(CCc2ccccc2)C1=O (stereo not given) | 120 °C
6 | Cc1cc(=O)n2nc(-c3ccncc3)nc2n1C | 263 to 267 °C
7 | Sc1nnc(-c2cccnc2)o1 | 237 °C
8 | Nc1ccncc1Nc1cccc2cc[nH]c12 | 68 to 70 °C
9 | CCOC(=O)Cc1cc(O)ccc1F | 85 to 87 °C
10 | CCC(CC)Cn1c(=O)c(=O)[nH]c2cc([N+](=O)[O-])c(-n3cccc3)cc21 | 154 to 155 °C
11 | COCOC1=C(C(N)=O)CC(C#N)(c2cccc(OCC3CC3)c2)CC1 (stereo not given) | 120 to 122 °C
12 | COc1ccc(CC(=O)c2c(O)c3cccnc3n(-c3ccccc3)c2=O)cc1OC | 161 to 163 °C
13 | Cc1c(-c2ccccc2)c(Cl)nc2ccccc12 | 88 to 90 °C
14 | Cc1nc(N2CCCC(Cc3ccc(C(F)(F)F)cc3)C2=O)sc1C(=O)NCc1ccccc1 (stereo not given) | 217 to 218 °C
15 | CCOC(=O)/C=C/c1ccc(OCCC(C)(C)O)cc1Oc1ncc(C(F)(F)F)cc1Cl | 63.5 to 66 °C
16 | COc1ccc(Cl)c(Oc2c(Cl)ncnc2Cl)c1 | 88 to 89 °C
17 | CNc1nc(C)c(-c2nc3ccccc3c(=O)n2-c2ccc(C(C)=O)cc2)s1 | 245 to 246 °C
18 | O=C(O)CCCc1cc2nc(Cl)ccc2n1S(=O)(=O)c1ccc2c(c1)OC(F)(F)O2 | 216 °C
19 | Cc1c(CNc2cccc(N)n2)c(C)c(CNc2cccc(N)n2)c(C)c1CNc1cccc(N)n1 | 130 to 132 °C
20 | CC(C)(C#N)c1ccc(OCc2ccccc2)cc1 | 63 to 64 °C
21 | CCc1cc2c(=O)n3cc(C(=O)O)ccc3nc2s1 | 255 to 257 °C
22 | NS(=O)(=O)c1ccccc1C(=O)OC1COC1 | 169 to 170 °C
23 | CCN(c1c(Cl)c(C(F)(F)F)cc2[nH]c(=O)c(=O)[nH]c12)S(C)(=O)=O | > 300 °C
24 | NC(=O)c1ccc([N+](=O)[O-])c(C(N)=O)c1 | 287 to 289 °C
25 | Nc1cc(I)cnc1N | 109 to 111 °C

Row | Compound | melting point
26 | O=C1N(c2ccccc2)CC(CCl)C1(Cl)Cl (stereo not given) | 133 to 134 °C
27 | NC1=CN(N)NN=C1c1cccc(Cl)c1Cl | 216 to 218 °C
28 | Cc1nc(NC(=O)c2ccccc2)n(C)c(=O)c1CCN1CCC(=C(c2ccc(F)cc2)c2ccc(F)cc2)CC1 | 240 °C
29 | CCC(=O)Oc1c(OC)cc(C)c(C(=O)c2c(OC)ccc(Cl)c2C)c1OC | 150 to 151 °C
30 | Cc1cn2nc(SCc3ccccc3)nc2nc1C | 147 to 149 °C
31 | CCOC(=O)c1cc(C#N)cc(CO)n1 | 87.5 °C
32 | ClCc1nc(-c2ccccc2)c(-c2ccccc2)o1 | 43 to 45 °C
33 | COc1ccc(-c2nc3cc(F)ccc3s2)cc1OC(=O)c1ccc([N+](=O)[O-])cc1 | 198 °C
34 | OCC1N=c2c(ccc3c2=CC=N3)O1 (stereo not given) | 169 to 172 °C
35 | CC(COC1CCCCO1)C1CCC2C3CC=C4CC(O)CC(O)C4(C)C3CCC12C (stereo not given) | 138 to 141 °C
36 | N#Cc1c(OCC(F)(F)F)nc(CO)nc1N1CCc2ccccc2CC1 | 106 to 110 °C
37 | Cc1ccc2c(=O)c(O)cn(C)c2c1 | 268 °C
38 | CCS(=O)(=O)c1ccc(F)c(C#Cc2cc(Cl)ccc2OCC(=O)O)c1 | 165 to 169 °C
39 | CN(C)CCCN=C1CC(c2ccc(C(F)(F)F)cc2)Cc2[nH]c3ccc(Cl)cc3c(=O)c21 (stereo not given) | 211 to 213 °C
40 | COCCN1CCc2ccc(Nc3ncc(Cl)c(Nc4ccccc4S(=O)(=O)N4CCC(O)C4)n3)cc2CC1 (stereo not given) | 120 to 128 °C
41 | O=S(=O)(NCc1cccnc1)c1ccc(Br)s1 | 125 °C
42 | CCCCCCCCCCCCS(=O)(=O)c1cc(C(=O)O)c([N+](=O)[O-])c(S(=O)(=O)CCCCCCCCCCCC)c1 | 153 to 154 °C
43 | Cc1ccc(S(=O)(=O)N2[C@@H](c3noc(C)n3)CC[C@H]2c2ccc(F)cc2)cc1 (racemic) | 115 °C
44 | CCCc1cc2cc(O)c(F)cc2c(Oc2ccc(/C=C/C(N)=O)cc2)c1-c1ccccc1 | 121 to 124 °C
45 | CCNc1nc(=S)n(Cc2ccc(OC)c(OC3CCCC3)c2)c2nc(C(C)C)[nH]c12 | 72 to 77 °C
46 | COc1ccc(CNc2ccc(C#N)cc2F)cc1 | 113 °C
47 | CCn1ncnc1COc1nc2c(cnn2-c2ccccc2)c2ccccc12 | 147 to 148 °C
48 | COc1ccc([C@H](O)[C@@H](Cc2ccc(C(F)(F)F)cc2)NC(=O)c2ccc(F)c3ccccc23)cc1 (racemic) | 184 to 185 °C
49 | CCC(NC(=O)OCc1ccccc1)C(=O)Nc1ccc(-n2nc(C(F)(F)F)cc2C(F)(F)F)cc1 (stereo not given) | 158 to 160 °C
50 | Cc1ccc(Oc2cc(-c3ccc(Br)cc3)oc2-c2ccc(Br)cc2)cc1 | 92 to 93 °C

Row | Compound | melting point
51 | COc1cnc(CS(C)=O)nc1OC(=O)N(C)C (stereo not given) | 122 °C
52 | Cn1c(=O)c2ccccc2n(CCCCCl)c1=O | 99 to 100 °C
53 | CN(C)c1ccc2ncnc(Cl)c2c1 | 126 to 128 °C
54 | Fc1ccc(/C=C/C2=CCN(Cc3c[nH]c4ncccc34)CC2)cc1 | 211 to 213 °C
55 | COc1cc(O)cc(OC)c1/C=C/S(=O)(=O)CS(=O)(=O)/C=C/c1c(OC)cc(O)cc1OC | 148 to 150 °C
56 | O=C(NCCNCCNC(=O)c1cccc2cc3ccccc3nc12)c1cccc2cc3ccccc3nc12 | 182 to 184 °C
57 | CSC(=NS(=O)(=O)N1CCCCC1)N1CC(c2ccccc2)C(c2ccc(Cl)cc2)=N1 (stereo not given) | 192 to 194 °C
58 | CC1(CCC(=O)O)CCCc2c1[nH]c1ccccc21 (stereo not given) | 204 to 206 °C
59 | CC(C)c1ccc(C(=O)C(C)c2ccccc2)c(C(C)C)c1OS(N)(=O)=O (stereo not given) | 142 to 144 °C
60 | CC(C)OC(=O)c1cc(-c2nn(C)c(C(F)(F)F)c2C(F)F)c(F)cc1Cl | 57 °C
61 | COc1nc(C(F)F)cnc1NS(=O)(=O)c1cccc(Cl)c1Cl | 117 to 118 °C
62 | CS(=O)(=O)c1ccc(-c2cnn(Cc3cccc([N+](=O)[O-])c3)c(=O)c2-c2ccc(F)cc2)cc1 | 156 to 157 °C
63 | O=C1NC(=O)C(=Cc2ccc3c(c2)c2ccccc2n3Cc2ccc(-c3ccccc3)cc2)S1 | > 250 °C
64 | CC[C@H](C)[C@H](NC(=O)[C@@H](N)CS)C(=O)NCCc1ccccc1 (H-Cys-Ile-NHPhenethyl) | 156 to 159 °C
65 | C=CCn1c(C)c(C)c2cnnc(OCc3ccc(Cl)cc3Cl)c21 | 98 to 99 °C
66 | CCc1ccc(C(=O)Nc2ccc(F)c(F)c2)cc1N | 108 to 110 °C
67 | CC(Br)C(=O)c1cc([N+](=O)[O-])cs1 (stereo not given) | 82.5 to 83 °C
68 | CC(C)(C#N)N1CCN(c2ccc(N3CC(CCC(N)=O)OC3=O)cc2F)CC1 (stereo not given) | 139 to 143 °C
69 | COc1ccc(N2CCN(C=C3C(=O)Nc4cc(OC)c(OC)cc43)CC2)cc1OC | 193 to 195 °C
70 | N#Cc1ccc2oc(CCc3ccc(CO)cc3)cc2c1 | 72 to 73 °C
71 | CCOC(=O)c1ccc(C(=O)Nc2ccc3c(c2)N(C)C(=O)CCC3(C)C)cc1 | 174 to 175 °C
72 | COc1ccc(N2CCOCC2)c2sc(-c3nc4c([nH]3)CCN(C(=O)OC(C)(C)C)CC4)nc12 | 120 °C
73 | Cc1c(C(=O)O)cnn1-c1nc(-c2cc(C(F)(F)F)cc(C(F)(F)F)c2)cs1 | 261 °C
74 | O=C(O)C1CCc2c(c3ccccc3n2C(=O)c2cccc(F)c2)C1 (stereo not given) | 170 to 171 °C
75 | CCOCc1nc2c(N)nc3ccccc3c2n1CC(C)(C)CS(N)(=O)=O | 229 to 231 °C

Row | Compound | melting point
76 | COC(=O)c1ccc(NC(=O)CC(=O)C(C)C)cc1 | 54 to 56 °C
77 | NC(=O)Cc1csc(-c2cccc(Br)c2)n1 | 150 to 152 °C
78 | CCN(CC)C(C)COc1ccccc1C(=O)O (stereo not given) | 137 to 140 °C
79 | NC1CC(=O)N(Cc2ccccc2)C1=O (stereo not given) | 74 to 77 °C
80 | COC(COc1cc(-n2ncc(C(F)(F)F)c(C)c2=O)c(F)cc1Cl)OC | 86 °C
81 | Cc1cc(-c2ccc(S(C)(=O)=O)cc2)n(-c2ccc(F)cc2)c1C | 159 to 162 °C
82 | COc1ccc(N=Nc2ccc(O)c(C(=O)Nc3ccc4cn[nH]c4c3)c2)cc1 | 279 °C
83 | CC(=O)C(=Cc1ccccc1[N+](=O)[O-])C(=O)OCCCl | 82 to 84 °C
84 | COc1cc2ccc(C(=O)N3CCN(C(=O)c4cc(OC)c(OC)c(OC)c4)CC3)cc2cc1OC | 224 to 226 °C
85 | CC(=O)Nc1ccc(C=C(C(=O)C2CC2)C(=O)C2CC2)cc1 | 166 to 167 °C
86 | CC(C)Oc1ccc(NC(=O)C2(C)CC2)cc1C(F)(F)F | 106 to 109 °C
87 | CCn1c(COCc2ccccc2)nc(C(C)C)c1Sc1cccc(F)c1 | 88 to 90 °C
88 | CNC(=S)NCCCSc1ncc[nH]1 | 139 to 141 °C
89 | COc1cc2c(cc1OC)C(C(c1ccccc1)N1CCCCC1)OC2=O (stereo not given) | 213 to 214 °C
90 | CC(C)(C#N)CN1C(=O)C2(OCCCO2)c2cc(Cl)ccc21 | 114 to 116 °C
91 | CCCCCCCCCCCCCc1c[nH]c(C=O)c1 | 61 to 64 °C
92 | N[C@@H](CCCCNC(=O)NCc1ccccc1)C(=O)N1CC(F)(F)C(F)(F)C1 | 89 to 92 °C
93 | CC(=O)c1ccc2c(c1O)CC(O)CO2 (stereo not given) | 130 to 132 °C
94 | O=C(Nc1ccc(N2CCN(Cc3ccccc3)CC2)c(Cl)c1)c1ccccn1 | 92 to 94 °C
95 | COc1ccc2c(c1)c(CC(=O)O)c(C)n2-c1nc(SC)nc2ccccc12 | 175 to 178 °C
96 | CN1CCC(c2cccc(Cl)c2)(C(C)(C)O)CC1 | 149 to 150 °C
97 | CCCOc1ccccc1-c1nc2nc(SC)ncc2c(=O)[nH]1 | 179 to 181 °C
98 | CCCCCCCCCCCCN(N)C(=O)NC | 73 to 75 °C
99 | Cc1cc2c(c3oc4ccccc4c(=O)c13)CC(C(=O)O)O2 (stereo not given) | 231 to 234 °C
100 | CCOC(=O)COc1ccc(NC(=O)NC(=O)c2ccc(C(=N)N)cc2)cc1 | 198 to 200 °C
